Data on 1 substance can be found in patent US20060030537A1, “Ceramide kinase and uses thereof” (priority 2004, published 2006).

In the data set the test system is ceramide kinase. Nature of the data set: Ceramide kinase assay on lysates of treated or transfected A549 cells. Type of data set: cell-based, human. As to conditions: 26 hours after transfection. As for the experimental part: FIGS. 5A-5C. IL-1β and calcium ionophore increase ceramide-1-phosphate production and ceramide kinase activity. FIGS. 5A and 5B. The effect of IL-1 and A23187 on C-1-P levels and AA liberation. A549 cells (2×10^5) were labeled overnight with 10 μCi/mL [^3H]-arachidonic acid (10 nM), washed, and then treated with either 2.5 ng/mL of IL-1β (FIG. 5A) or 1 μg/mL of A23187 (FIG. 5B) for the indicated times. Two hours prior to Bligh-Dyer extraction, cells were chased with 20 μM of D-e-C6 NBD-ceramide (Matreya). At the appropriate times, media was taken for AA analysis, and lipids from the cells were extracted by the Bligh-Dyer method followed by analysis of NBD-C-1-P formation. Data are presented as % control of C-1-P levels (J) and AA release (B). Data are representative of three separate determinations on 2 separate occasions. FIG. 5C. IL-1β and calcium ionophore increase ceramide kinase activity. A549 cells (5×10^5) were treated with either 2.5 ng/mL of IL-1β for 3.5 hours or 1 μg/mL of A23187 for 5 minutes. Cells were then washed, lysed in assay buffer, and assayed for ceramide kinase activity. Data is presented as % control of ceramide kinase activity (Arbitrary densitometry units of fluorescent NBD-C-1-P produced/min/mg of total cellular protein). Data are representative of three separate determinations on 2 separate occasions.
FIGS. 6A-6B. Ceramide kinase RNAi downregulates endogenous ceramide kinase activity and mRNA levels. FIG. 6A. The effect of ceramide kinase RNAi on endogenous ceramide kinase activity. […] Following the same procedure as outlined in FIG. 6A, total RNA was extracted and analyzed via logarithmic reverse-transcriptase polymerase chain reaction for human ceramide kinase and 18s ribosomal RNA. […]
Ceramide Kinase Assay: Ceramide kinase activity was measured as described previously with slight modifications (Bajjalieh, S., and Batchelor, R. (2001) Methods Enzymol. 311, 207-215). […] Following Bligh-Dyer extraction, lipids were separated by thin layer chromatography, and NBD-C-1-P was visualized/quantified by fluorescent phosphorimaging.

As to “ceramide kinase RNAi: 21-nucleotide duplex, human ceramide kinase RNAi starting 142 nucleotides from start codon (SEQ ID NO: 3 and 4) (chain 1 UGCCUGCUCUGUGCCUGUATT; chain 2 UACAGGCACAGAGCAGGCATT; chemistry not given here)”, the “decrease of endogenous ceramide kinase activity” value was 67%.
